US20220096516A1, “OLIGONUCLEOTIDE MOLECULE AND APPLICATION THEREOF IN TUMOR THERAPY” (Ractigen Therapeutics, priority 2019, published 2022)
d = 2'-deoxy (DNA); r = 2'-OH (RNA)

Tested on: LHPP gene
Assay: High-throughput screening of saRNAs targeting LHPP promoter: LHPP mRNA by one-step RT-qPCR in Huh7 cells
Type: cell-based, human
Details: 10 nM saRNA, 72 hours, relative to control (Mock)
Summary of the method: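 LHPP transcript level relative to mock, normalised to the geometric mean of the HPRT1 and TBP reference genes, measured by one-step RT-qPCR on crude lysates. Huh7 cells had been RNAiMax-transfected with each saRNA at 10 nM for 72 h.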

Substance	Fold of changes in relative LHPP mRNA expression level [fold]	Fold of changes in relative LHPP mRNA expression level (log2)
RAG7-681: saRNA duplex; sense CCUCAUCUAUGCAGGGCUGTT (SEQ ID NO: 149), antisense CAGCCCUGCAUAGAUGAGGTT (SEQ ID NO: 313) (sugars from the 5' end r19 d2, backbone not given here)	1.13	0.17
RAG7-735: saRNA duplex; sense GGGUUUAACGCAUUGUGAUTT (SEQ ID NO: 114), antisense AUCACAAUGCGUUAAACCCTT (SEQ ID NO: 278) (sugars from the 5' end r19 d2, backbone not given here)	1.19	0.25
RAG7-160: saRNA duplex; sense CUUAGGGACUUGUUUUCUGTT (SEQ ID NO: 153), antisense CAGAAAACAAGUCCCUAAGTT (SEQ ID NO: 317) (sugars from the 5' end r19 d2, backbone not given here)	1.11	0.15
RAG7-130: saRNA duplex; sense CUUUGUCCGCUGAUCUCCUTT (SEQ ID NO: 77), antisense AGGAGAUCAGCGGACAAAGTT (SEQ ID NO: 241) (sugars from the 5' end r19 d2, backbone not given here)	1.28	0.36
RAG7-726: saRNA duplex; sense GCAUUGUGAUAGUCCCGUUTT (SEQ ID NO: 127), antisense AACGGGACUAUCACAAUGCTT (SEQ ID NO: 291) (sugars from the 5' end r19 d2, backbone not given here)	1.17	0.22
RAG7-140: saRNA duplex; sense UUUUCCUGCUCUUUGUCCGTT (SEQ ID NO: 74), antisense CGGACAAAGAGCAGGAAAATT (SEQ ID NO: 238) (sugars from the 5' end r19 d2, backbone not given here)	1.28	0.36
RAG7-710: saRNA duplex; sense GUUUUCUUCUCAGCCCAGGTT (SEQ ID NO: 122), antisense CCUGGGCUGAGAAGAAAACTT (SEQ ID NO: 286) (sugars from the 5' end r19 d2, backbone not given here)	1.18	0.24
RAG7-695: saRNA duplex; sense CAGGUCCUAUGCAUCCUCATT (SEQ ID NO: 54), antisense UGAGGAUGCAUAGGACCUGTT (SEQ ID NO: 218) (sugars from the 5' end r19 d2, backbone not given here)	1.36	0.44
RAG7-676: saRNA duplex; sense UCUAUGCAGGGCUGUUAUCTT (SEQ ID NO: 83), antisense GAUAACAGCCCUGCAUAGATT (SEQ ID NO: 247) (sugars from the 5' end r19 d2, backbone not given here)	1.26	0.33
RAG7-828: saRNA duplex; sense UGAGGAAACUCCUCCCUUUTT (SEQ ID NO: 108), antisense AAAGGGAGGAGUUUCCUCATT (SEQ ID NO: 272) (sugars from the 5' end r19 d2, backbone not given here)	1.20	0.26
RAG7-185: saRNA duplex; sense UUGUCUCAAUUUGCCUUUGTT (SEQ ID NO: 116), antisense CAAAGGCAAAUUGAGACAATT (SEQ ID NO: 280) (sugars from the 5' end r19 d2, backbone not given here)	1.19	0.25
RAG7-909: saRNA duplex; sense UUGAAAGCUCAAAGCUAUGTT (SEQ ID NO: 23), antisense CAUAGCUUUGAGCUUUCAATT (SEQ ID NO: 187) (sugars from the 5' end r19 d2, backbone not given here)	1.53	0.61
RAG7-145: saRNA duplex; sense UCUGCUUUUCCUGCUCUUUTT (SEQ ID NO: 9), antisense AAAGAGCAGGAAAAGCAGATT (SEQ ID NO: 173) (sugars from the 5' end r19 d2, backbone not given here)	1.71	0.77
RAG7-171: saRNA duplex; sense CUUUGACCUUUCUUAGGGATT (SEQ ID NO: 80), antisense UCCCUAAGAAAGGUCAAAGTT (SEQ ID NO: 244) (sugars from the 5' end r19 d2, backbone not given here)	1.27	0.34
RAG7-139: saRNA duplex; sense UUUCCUGCUCUUUGUCCGCTT (SEQ ID NO: 7), antisense GCGGACAAAGAGCAGGAAATT (SEQ ID NO: 171) (sugars from the 5' end r19 d2, backbone not given here)	1.73	0.79
RAG7-837: saRNA duplex; sense AGGGGCCAUUGAGGAAACUTT (SEQ ID NO: 109), antisense AGUUUCCUCAAUGGCCCCUTT (SEQ ID NO: 273) (sugars from the 5' end r19 d2, backbone not given here)	1.20	0.26
RAG7-687: saRNA duplex; sense AUGCAUCCUCAUCUAUGCATT (SEQ ID NO: 162), antisense UGCAUAGAUGAGGAUGCAUTT (SEQ ID NO: 326) (sugars from the 5' end r19 d2, backbone not given here)	1.10	0.14
RAG7-897: saRNA duplex; sense AGCUAUGUUGGACCAGAAGTT (SEQ ID NO: 65), antisense CUUCUGGUCCAACAUAGCUTT (SEQ ID NO: 229) (sugars from the 5' end r19 d2, backbone not given here)	1.31	0.39
RAG7-100: saRNA duplex; sense UUCCGAAAAGGACACCGUUTT (SEQ ID NO: 125), antisense AACGGUGUCCUUUUCGGAATT (SEQ ID NO: 289) (sugars from the 5' end r19 d2, backbone not given here)	1.17	0.22
RAG7-709: saRNA duplex; sense UUUUCUUCUCAGCCCAGGUTT (SEQ ID NO: 126), antisense ACCUGGGCUGAGAAGAAAATT (SEQ ID NO: 290) (sugars from the 5' end r19 d2, backbone not given here)	1.17	0.22
RAG7-907: saRNA duplex; sense GAAAGCUCAAAGCUAUGUUTT (SEQ ID NO: 22), antisense AACAUAGCUUUGAGCUUUCTT (SEQ ID NO: 186) (sugars from the 5' end r19 d2, backbone not given here)	1.55	0.63
RAG7-893: saRNA duplex; sense AUGUUGGACCAGAAGUAAATT (SEQ ID NO: 14), antisense UUUACUUCUGGUCCAACAUTT (SEQ ID NO: 178) (sugars from the 5' end r19 d2, backbone not given here)	1.63	0.70
RAG7-102: saRNA duplex; sense GCUUCCGAAAAGGACACCGTT (SEQ ID NO: 96), antisense CGGUGUCCUUUUCGGAAGCTT (SEQ ID NO: 260) (sugars from the 5' end r19 d2, backbone not given here)	1.23	0.30
RAG7-43: saRNA duplex; sense CAGUUCCGGGUUUGCACCCTT (SEQ ID NO: 93), antisense GGGUGCAAACCCGGAACUGTT (SEQ ID NO: 257) (sugars from the 5' end r19 d2, backbone not given here)	1.23	0.30
RAG7-722: saRNA duplex; sense UGUGAUAGUCCCGUUUUCUTT (SEQ ID NO: 135), antisense AGAAAACGGGACUAUCACATT (SEQ ID NO: 299) (sugars from the 5' end r19 d2, backbone not given here)	1.15	0.21
